From patent US8039619B2, “Process for preparing (2R,3S/2S,3R)-2-(2,4-difluorophenyl)-3-(5-fluoropyrimidin-4-yl)-1-(1H-1,2,4-triazol-1-yl)butan-2-ol” (Dr. Reddy's Laboratories Limited, priority 2004, dated 2011)
Converted amounts (≈) assume the structure as drawn.

Experiment: Solubility comparison at room temperature
Format: physicochemical
Conditions: organic solvent or mixture
From the text: Solubility comparison at room temperature (values in mg/l): […]

Question: With `C[C@@H](c1ncncc1F)[C@](O)(Cn1cncn1)c1ccc(F)cc1F` [Crystalline Form B, (2R,3S)-2-(2,4-diflurophenyl)-3-(5-fluoropyrimidin-4-yl)-1-(1H-1,2,4-triazol-1-yl) -butan-2-ol] as the compound, how does the solubility (Acetone) read?
Answer: 250 µg/mL (≈ 716 µM)

Question: What about the solubility (Methanol) of the same compound?
Answer: 125 µg/mL (≈ 358 µM)
